From ChEMBL document CHEMBL1141965, “Preparation of human Melanocortin-4 receptor agonist libraries: linear peptides X-Y-DPhe7-Arg8-Trp(or 2-Nal)9-Z-NH2” (Bioorg Med Chem Lett, 2005)
Non-standard residues stand in square brackets, D forms with d. Residues, ends and D or L forms follow the SMILES beside them. ξ: configuration not given here. *: point of attachment. Ac6c(4-Ph-cis-to-N) = N[C@]1(C(=O)O)CC[C@H](c2ccccc2)CC1; ξAtc(5-Br) = NC1(C(=O)O)CCc2c(Br)cccc2C1; Pentanoyl = CCCCC(=O)*

Columns and labels:
[1] = biological target: T1, Melanocyte-stimulating hormone receptor (Homo sapiens, UniProt Q01726); test: Agonist activity at human MC1R at 50 uM; assay type: functional
T1 sequence (Q01726 whole entry, looked up): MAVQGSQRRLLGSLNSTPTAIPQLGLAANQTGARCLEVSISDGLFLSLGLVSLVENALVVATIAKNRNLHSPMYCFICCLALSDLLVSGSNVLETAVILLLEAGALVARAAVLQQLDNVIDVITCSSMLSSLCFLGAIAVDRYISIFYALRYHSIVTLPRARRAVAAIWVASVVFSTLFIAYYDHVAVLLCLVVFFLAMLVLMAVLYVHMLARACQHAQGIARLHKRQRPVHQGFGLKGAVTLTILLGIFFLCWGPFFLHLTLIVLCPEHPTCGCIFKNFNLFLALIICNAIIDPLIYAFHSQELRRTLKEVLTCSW

[2] = biological target: T2, Melanocortin receptor 4 (Homo sapiens, UniProt P32245); test: Agonist activity in HEK293 cells transfected with human MC4R by cAMP accumulation; assay type: functional, cell-based
T2 sequence (P32245 whole entry): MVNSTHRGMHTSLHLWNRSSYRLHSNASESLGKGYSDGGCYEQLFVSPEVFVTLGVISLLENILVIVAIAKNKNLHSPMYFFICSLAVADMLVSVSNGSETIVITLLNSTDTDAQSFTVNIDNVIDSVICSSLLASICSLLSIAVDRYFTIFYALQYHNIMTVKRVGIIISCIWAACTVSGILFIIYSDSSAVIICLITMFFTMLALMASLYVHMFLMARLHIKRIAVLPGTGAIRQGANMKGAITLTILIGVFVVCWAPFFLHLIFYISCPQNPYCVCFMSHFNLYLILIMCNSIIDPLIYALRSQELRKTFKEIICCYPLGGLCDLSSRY

[3] = biological target: T2, Melanocortin receptor 4; test: Agonist activity at human MC4R at 100 nM; assay type: functional
[4] = biological target: T1, Melanocyte-stimulating hormone receptor; test: Agonist activity at human MC1R at 10 uM; assay type: functional
[5] = biological target: T1, Melanocyte-stimulating hormone receptor; test: Agonist activity at human MC1R at 100 nM; assay type: functional

Structure (SMILES)	EC50 [2] [nM]	Activity [4] [%]	also measured
CCCC(=O)N[C@]1(C(=O)N[C@H](Cc2ccccc2)C(=O)N[C@@H](CCCN=C(N)N)C(=O)N[C@@H](Cc2c[nH]c3ccccc23)C(=O)NCCC(N)=O)CC[C@H](c2ccccc2)CC1	5	–	Activity [1]: 50%
CCCC(=O)N[C@]1(C(=O)N[C@H](Cc2ccccc2)C(=O)N[C@@H](CCCN=C(N)N)C(=O)NC(Cc2ccc3ccccc3c2)C(=O)NCCC(N)=O)CC[C@H](c2ccccc2)CC1 (some centres not stated)	–	25	Activity [3]: > 30%
CCCC(=O)N[C@]1(C(=O)N[C@H](Cc2ccccc2)C(=O)N[C@@H](CCCN=C(N)N)C(=O)NC(Cc2ccc3ccccc3c2)C(=O)N[C@@H](C)C(N)=O)CC[C@H](c2ccccc2)CC1 (some centres not stated)	–	25	Activity [3]: > 30%; EC50 ([2]; hek293): 220 nM
CCCC(=O)NC1(C(=O)N[C@H](Cc2ccccc2)C(=O)N[C@@H](CCCN=C(N)N)C(=O)NC(Cc2ccc3ccccc3c2)C(=O)NCC(N)=O)CCc2c(Br)cccc2C1 (some centres not stated)	–	–	Activity [3]: 30%; Activity [5]: 26%
N=C(N)NCCC[C@H](NC(=O)[C@@H](Cc1ccccc1)NC(=O)[C@]1(NC(=O)Cc2ccccc2)CC[C@@H](c2ccccc2)CC1)C(=O)N[C@@H](Cc1c[nH]c2ccccc12)C(=O)NCc1cccc(C(N)=O)c1	2	60	–
CCCCNC(=O)N[C@]1(C(=O)N[C@H](Cc2ccccc2)C(=O)N[C@@H](CCCN=C(N)N)C(=O)N[C@@H](Cc2c[nH]c3ccccc23)C(=O)NCCC(N)=O)CC[C@H](c2ccccc2)CC1	2	–	Activity [1]: 50%
CCCCNC(=O)N[C@]1(C(=O)N[C@H](Cc2ccccc2)C(=O)N[C@@H](CCCN=C(N)N)C(=O)N[C@@H](Cc2c[nH]c3ccccc23)C(=O)N[C@@H](C)C(N)=O)CC[C@H](c2ccccc2)CC1	2	–	Activity [1]: 25%
CCCCC(=O)N[C@]1(C(=O)N[C@H](Cc2ccccc2)C(=O)N[C@@H](CCCN=C(N)N)C(=O)NC(Cc2ccc3ccccc3c2)C(=O)NCC(N)=O)CC[C@H](c2ccccc2)CC1 (some centres not stated)	–	–	Activity [1]: 60%
CCCCNC(=O)N[C@]1(C(=O)N[C@H](Cc2ccccc2)C(=O)N[C@@H](CCCN=C(N)N)C(=O)N[C@@H](Cc2c[nH]c3ccccc23)C(=O)NCC(N)=O)CC[C@H](c2ccccc2)CC1	2	55	–
CCCC(=O)N[C@]1(C(=O)N[C@H](Cc2ccccc2)C(=O)N[C@@H](CCCN=C(N)N)C(=O)N[C@@H](Cc2c[nH]c3ccccc23)C(=O)NCc2cccc(C(N)=O)c2)CC[C@H](c2ccccc2)CC1	2	–	Activity [1]: 50%
CCCC(=O)NC1(C(=O)N[C@H](Cc2ccccc2)C(=O)N[C@@H](CCCN=C(N)N)C(=O)N[C@@H](Cc2c[nH]c3ccccc23)C(=O)Nc2ccccc2C(N)=O)CCc2c(Br)cccc2C1 (some centres not stated)	15	–	Activity [1]: 65%
CCCCNC(=O)N[C@]1(C(=O)N[C@H](Cc2ccccc2)C(=O)N[C@@H](CCCN=C(N)N)C(=O)N[C@@H](Cc2c[nH]c3ccccc23)C(=O)NCc2cccc(C(N)=O)c2)CC[C@H](c2ccccc2)CC1	2	60	–
CCCCNC(=O)NC1(C(=O)N[C@H](Cc2ccccc2)C(=O)N[C@@H](CCCN=C(N)N)C(=O)N[C@@H](Cc2c[nH]c3ccccc23)C(=O)Nc2ccccc2C(N)=O)CCc2c(Br)cccc2C1 (some centres not stated)	15	50	–
CCCC(=O)N[C@]1(C(=O)N[C@H](Cc2ccccc2)C(=O)N[C@@H](CCCN=C(N)N)C(=O)N[C@@H](Cc2c[nH]c3ccccc23)C(=O)NCc2ccc(C(N)=O)cc2)CC[C@H](c2ccccc2)CC1	1	50	–
CCCC(=O)N[C@]1(C(=O)N[C@H](Cc2ccccc2)C(=O)N[C@@H](CCCN=C(N)N)C(=O)NC(Cc2ccc3ccccc3c2)C(=O)Nc2ccccc2C(N)=O)CC[C@H](c2ccccc2)CC1 (some centres not stated)	–	50	Activity [3]: > 30%
CCCC(=O)N[C@]1(C(=O)N[C@H](Cc2ccccc2)C(=O)N[C@@H](CCCN=C(N)N)C(=O)N[C@@H](Cc2ccc3ccccc3c2)C(=O)NCCC(N)=O)CC[C@H](c2ccccc2)CC1	90	–	–
CCCCC(=O)N[C@]1(C(=O)N[C@H](Cc2ccccc2)C(=O)N[C@@H](CCCN=C(N)N)C(=O)N[C@@H](Cc2ccc3ccccc3c2)C(=O)NCC(N)=O)CC[C@H](c2ccccc2)CC1	50	–	–
C[C@H](NC(=O)[C@H](Cc1c[nH]c2ccccc12)NC(=O)[C@H](CCCN=C(N)N)NC(=O)[C@@H](Cc1ccccc1)NC(=O)[C@]1(NC(=O)Cc2ccccc2)CC[C@@H](c2ccccc2)CC1)C(N)=O	3	30	–
N=C(N)NCCC[C@H](NC(=O)[C@@H](Cc1ccccc1)NC(=O)C1(NC(=O)Cc2ccccc2)CCc2c(Br)cccc2C1)C(=O)N[C@@H](Cc1c[nH]c2ccccc12)C(=O)Nc1ccccc1C(N)=O (some centres not stated)	11	50	–

Structure (SMILES)	EC50 [2] [nM]	Activity [4] [%]	also measured
CCCC(=O)N[C@]1(C(=O)N[C@H](Cc2ccccc2)C(=O)N[C@@H](CCCN=C(N)N)C(=O)N[C@@H](Cc2ccc3ccccc3c2)C(=O)NCc2ccc(C(N)=O)cc2)CC[C@H](c2ccccc2)CC1	85	–	–
CCCC(=O)NC1(C(=O)N[C@H](Cc2ccccc2)C(=O)N[C@@H](CCCN=C(N)N)C(=O)NC(Cc2ccc3ccccc3c2)C(=O)NCCC(N)=O)CCc2c(Br)cccc2C1 (some centres not stated)	–	–	Activity [3]: 32%; Activity [5]: 40%
CCCC(=O)NC1(C(=O)N[C@H](Cc2ccccc2)C(=O)N[C@@H](CCCN=C(N)N)C(=O)N[C@@H](Cc2ccc3ccccc3c2)C(=O)Nc2ccccc2C(N)=O)CCc2c(Br)cccc2C1 (some centres not stated)	72	–	–
CCCC(=O)N[C@]1(C(=O)N[C@H](Cc2ccccc2)C(=O)N[C@@H](CCCN=C(N)N)C(=O)N[C@@H](Cc2ccc3ccccc3c2)C(=O)Nc2ccccc2C(N)=O)CC[C@H](c2ccccc2)CC1	39	–	–
N=C(N)NCCC[C@H](NC(=O)[C@@H](Cc1ccccc1)NC(=O)[C@]1(NC(=O)Cc2ccccc2)CC[C@@H](c2ccccc2)CC1)C(=O)N[C@@H](Cc1c[nH]c2ccccc12)C(=O)Nc1ccccc1C(N)=O	3	75	–
CCCC(=O)N[C@]1(C(=O)N[C@H](Cc2ccccc2)C(=O)N[C@@H](CCCN=C(N)N)C(=O)N[C@@H](Cc2c[nH]c3ccccc23)C(=O)N[C@@H](C)C(N)=O)CC[C@H](c2ccccc2)CC1	3	–	Activity [1]: 25%
CCCC(=O)N[C@]1(C(=O)N[C@H](Cc2ccccc2)C(=O)N[C@@H](CCCN=C(N)N)C(=O)N[C@@H](Cc2ccc3ccccc3c2)C(=O)NCc2cccc(C(N)=O)c2)CC[C@H](c2ccccc2)CC1	110	–	–
CCCC(=O)N[C@]1(C(=O)N[C@H](Cc2ccccc2)C(=O)N[C@@H](CCCN=C(N)N)C(=O)NC(Cc2ccc3ccccc3c2)C(=O)NCc2ccc(C(N)=O)cc2)CC[C@H](c2ccccc2)CC1 (some centres not stated)	–	–	Activity [3]: > 30%; Activity [1]: 15%
CCCCC(=O)NC1(C(=O)N[C@H](Cc2ccccc2)C(=O)N[C@@H](CCCN=C(N)N)C(=O)N[C@@H](Cc2c[nH]c3ccccc23)C(=O)NCC(N)=O)CCc2c(Br)cccc2C1 (some centres not stated) (Pentanoyl-[ξAtc(5-Br)][dF]RWG-NH2)	–	–	Activity [1]: 50%
CCCC(=O)NC1(C(=O)N[C@H](Cc2ccccc2)C(=O)N[C@@H](CCCN=C(N)N)C(=O)NC(Cc2ccc3ccccc3c2)C(=O)Nc2ccccc2C(N)=O)CCc2c(Br)cccc2C1 (some centres not stated)	–	–	Activity [3]: > 30%; Activity [1]: 60%
CCCC(=O)N[C@]1(C(=O)N[C@H](Cc2ccccc2)C(=O)N[C@@H](CCCN=C(N)N)C(=O)N[C@@H](Cc2c[nH]c3ccccc23)C(=O)Nc2ccccc2C(N)=O)CC[C@H](c2ccccc2)CC1	2	60	–
N=C(N)NCCC[C@H](NC(=O)[C@@H](Cc1ccccc1)NC(=O)[C@]1(NC(=O)Cc2ccccc2)CC[C@@H](c2ccccc2)CC1)C(=O)N[C@@H](Cc1c[nH]c2ccccc12)C(=O)NCc1ccc(C(N)=O)cc1	1	70	–
CCCCNC(=O)N[C@]1(C(=O)N[C@H](Cc2ccccc2)C(=O)N[C@@H](CCCN=C(N)N)C(=O)N[C@@H](Cc2c[nH]c3ccccc23)C(=O)Nc2ccccc2C(N)=O)CC[C@H](c2ccccc2)CC1	2	75	–
NC(=O)CCNC(=O)[C@H](Cc1c[nH]c2ccccc12)NC(=O)[C@H](CCCN=C(N)N)NC(=O)[C@@H](Cc1ccccc1)NC(=O)[C@]1(NC(=O)Cc2ccccc2)CC[C@@H](c2ccccc2)CC1	5	45	–
CCCC(=O)N[C@]1(C(=O)N[C@H](Cc2ccccc2)C(=O)N[C@@H](CCCN=C(N)N)C(=O)NC(Cc2ccc3ccccc3c2)C(=O)NCc2cccc(C(N)=O)c2)CC[C@H](c2ccccc2)CC1 (some centres not stated)	–	25	Activity [3]: > 30%
CCCCC(=O)N[C@]1(C(=O)N[C@H](Cc2ccccc2)C(=O)N[C@@H](CCCN=C(N)N)C(=O)N[C@@H](Cc2c[nH]c3ccccc23)C(=O)NCC(N)=O)CC[C@H](c2ccccc2)CC1 (Pentanoyl-[Ac6c(4-Ph-cis-to-N)][dF]RWG-NH2)	–	–	Activity [1]: 25%
NC(=O)CNC(=O)[C@H](Cc1c[nH]c2ccccc12)NC(=O)[C@H](CCCN=C(N)N)NC(=O)[C@@H](Cc1ccccc1)NC(=O)[C@]1(NC(=O)Cc2ccccc2)CC[C@@H](c2ccccc2)CC1	2	30	–
CCCC(=O)N[C@]1(C(=O)N[C@H](Cc2ccccc2)C(=O)N[C@@H](CCCN=C(N)N)C(=O)N[C@@H](Cc2ccc3ccccc3c2)C(=O)NCC(N)=O)CC[C@H](c2ccccc2)CC1	44	25	Activity [3]: > 30%
